Source: ChEMBL document CHEMBL1909046, “DrugMatrix in vitro pharmacology data”

Tests used:
Cannabinoid receptor 1 = Cannabinoid receptor 1 (Homo sapiens, UniProt P21554); type: cell membranes, Chem-1, Membrane; also: in other assays of this panel Not Active means under 50% inhibition at 10 µM
[1] = DRUGMATRIX: Purinergic P2X radioligand binding (ligand: [3H] alpha, beta-Methylene-ATP); type: cell membranes, Oryctolagus cuniculus, New Zealand albino, Urinary bladder, Membrane; conditions: Not Active = under 50% inhibition at 10 µM
[2] = DRUGMATRIX: Glutamate, NMDA, Agonism radioligand binding (ligand: [3H] CGP-39653); type: cell membranes, Rattus norvegicus, Wistar, Cerebral cortex, Membrane; conditions: Not Active = under 50% inhibition at 10 µM
[3] = target: T1, Polyunsaturated fatty acid lipoxygenase ALOX15 (Oryctolagus cuniculus, UniProt P12530); experiment: biochemical; type: tissue-based, Reticulocytes;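 also: inhibition of 15-lipoxygenase enzyme activity measured with linoleic acid as the substrate; in other assays of this panel Not Active means under 50% inhibition at 10 µM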
T1 sequence (P12530 whole entry): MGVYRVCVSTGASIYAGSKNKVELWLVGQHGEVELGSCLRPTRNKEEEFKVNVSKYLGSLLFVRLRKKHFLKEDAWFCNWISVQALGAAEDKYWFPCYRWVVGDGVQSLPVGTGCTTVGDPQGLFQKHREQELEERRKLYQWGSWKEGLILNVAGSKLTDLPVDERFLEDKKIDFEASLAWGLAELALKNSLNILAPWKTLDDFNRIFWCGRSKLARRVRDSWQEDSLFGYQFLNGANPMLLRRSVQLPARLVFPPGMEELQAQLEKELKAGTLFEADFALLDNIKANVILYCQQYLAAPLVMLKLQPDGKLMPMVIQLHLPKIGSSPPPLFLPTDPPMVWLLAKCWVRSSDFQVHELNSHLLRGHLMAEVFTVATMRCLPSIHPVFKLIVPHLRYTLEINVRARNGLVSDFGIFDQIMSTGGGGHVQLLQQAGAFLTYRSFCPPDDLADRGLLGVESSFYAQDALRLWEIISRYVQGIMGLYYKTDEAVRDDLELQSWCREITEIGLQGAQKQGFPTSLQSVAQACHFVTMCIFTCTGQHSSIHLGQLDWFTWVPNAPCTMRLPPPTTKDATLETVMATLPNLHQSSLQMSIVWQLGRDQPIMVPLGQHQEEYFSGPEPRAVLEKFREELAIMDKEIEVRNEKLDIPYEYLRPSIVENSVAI

[4] = target: T2, 5-hydroxytryptamine receptor 1A (Rattus norvegicus, UniProt P19327); type: cell membranes, CHO-K1, Membrane; conditions: cho-k1; also: in other assays of this panel Not Active means under 50% inhibition at 10 µM
T2 sequence (P19327 whole entry): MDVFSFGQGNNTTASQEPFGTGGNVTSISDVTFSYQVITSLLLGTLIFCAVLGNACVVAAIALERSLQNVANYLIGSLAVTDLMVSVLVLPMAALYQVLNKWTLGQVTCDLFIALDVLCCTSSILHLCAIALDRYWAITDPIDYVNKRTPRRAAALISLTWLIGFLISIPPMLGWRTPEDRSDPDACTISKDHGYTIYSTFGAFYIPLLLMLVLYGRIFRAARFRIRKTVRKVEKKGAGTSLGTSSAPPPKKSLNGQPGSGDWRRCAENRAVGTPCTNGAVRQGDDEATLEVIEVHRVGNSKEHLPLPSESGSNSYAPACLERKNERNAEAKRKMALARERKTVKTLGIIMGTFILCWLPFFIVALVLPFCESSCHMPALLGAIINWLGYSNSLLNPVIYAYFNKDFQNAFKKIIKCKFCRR

[5] = target: Kappa-type opioid receptor (Homo sapiens, UniProt P41145); experiment: DRUGMATRIX: Opiate kappa (OP2, KOP) radioligand binding (ligand: [3H] Diprenorphine); type: cell membranes, HEK293, Membrane; conditions: hek293; Not Active = under 50% inhibition at 10 µM
Kappa-type opioid receptor, sequence (P41145 whole entry): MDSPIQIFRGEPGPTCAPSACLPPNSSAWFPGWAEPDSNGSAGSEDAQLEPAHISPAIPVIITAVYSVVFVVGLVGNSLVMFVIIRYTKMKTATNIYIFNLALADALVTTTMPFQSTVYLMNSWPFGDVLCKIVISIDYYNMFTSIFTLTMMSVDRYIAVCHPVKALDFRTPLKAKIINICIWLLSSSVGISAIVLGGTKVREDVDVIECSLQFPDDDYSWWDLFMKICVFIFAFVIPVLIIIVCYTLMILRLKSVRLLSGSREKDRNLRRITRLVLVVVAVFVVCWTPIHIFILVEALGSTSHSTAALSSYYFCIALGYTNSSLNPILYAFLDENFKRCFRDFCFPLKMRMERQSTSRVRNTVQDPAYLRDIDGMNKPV

Cytochrome P450 2A6 = target: T3, Cytochrome P450 2A6 (Homo sapiens, UniProt P11509); conditions: bti-tn-5b1-4; also: in other assays of this panel Not Active means under 50% inhibition at 10 µM
T3 sequence (P11509 whole entry): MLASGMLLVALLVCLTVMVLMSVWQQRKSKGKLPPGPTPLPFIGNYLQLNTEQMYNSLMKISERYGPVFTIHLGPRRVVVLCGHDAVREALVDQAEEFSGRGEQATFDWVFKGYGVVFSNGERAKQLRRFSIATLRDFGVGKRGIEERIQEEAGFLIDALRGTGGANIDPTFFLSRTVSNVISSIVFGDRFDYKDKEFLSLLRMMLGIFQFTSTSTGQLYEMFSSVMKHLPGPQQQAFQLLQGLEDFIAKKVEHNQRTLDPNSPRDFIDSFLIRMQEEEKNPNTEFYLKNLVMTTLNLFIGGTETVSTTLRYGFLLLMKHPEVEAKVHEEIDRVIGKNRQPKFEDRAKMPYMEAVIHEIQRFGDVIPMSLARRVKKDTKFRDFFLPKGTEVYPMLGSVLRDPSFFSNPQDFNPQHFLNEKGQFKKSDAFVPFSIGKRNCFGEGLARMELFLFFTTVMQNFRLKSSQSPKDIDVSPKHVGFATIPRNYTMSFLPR

Cannabinoid receptor 1, sequence (P21554 whole entry): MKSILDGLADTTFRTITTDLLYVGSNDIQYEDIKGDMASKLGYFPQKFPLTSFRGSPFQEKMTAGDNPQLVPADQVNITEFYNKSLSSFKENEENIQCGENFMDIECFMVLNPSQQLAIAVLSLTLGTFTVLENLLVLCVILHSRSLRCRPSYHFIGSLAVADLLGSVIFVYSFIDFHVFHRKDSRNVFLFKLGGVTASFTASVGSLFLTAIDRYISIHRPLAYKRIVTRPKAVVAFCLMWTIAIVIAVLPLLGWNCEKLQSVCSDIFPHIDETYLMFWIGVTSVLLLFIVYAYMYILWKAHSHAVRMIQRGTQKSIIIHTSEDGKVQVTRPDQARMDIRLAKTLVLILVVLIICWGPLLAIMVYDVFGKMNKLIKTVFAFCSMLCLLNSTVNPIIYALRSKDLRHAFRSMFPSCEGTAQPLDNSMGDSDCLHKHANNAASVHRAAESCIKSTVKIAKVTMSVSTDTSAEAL

SMILES | IC50 (Cannabinoid receptor 1; chem-1) | IC50 [1] | Ki [1] | IC50 [2] | Ki [2] | IC50 ([3]; reticulocytes) | IC50 [4] | IC50 [5] | IC50 (Cytochrome P450 2A6) | Ki (Cytochrome P450 2A6) | IC50 ([3]; read-out: IC50) | IC50 (Cannabinoid receptor 1; read-out: IC50) | Ki (Cannabinoid receptor 1; read-out: Ki)
COc1cc(NC(C)CCCN)c2ncccc2c1 (stereo unspecified) [PRIMAQUINE] | Not Active | Not Active | Not Active | Not Active | Not Active | Not Active | Not Active | Not Active | Not Active | Not Active | – | – | –
COc1cc(/C=C/C(=O)O)ccc1O [FERULATE] | Not Active | Not Active | Not Active | Not Active | Not Active | – | Not Active | Not Active | Not Active | Not Active | 3.98 µM | – | –
CCN1CCN(C(=O)N[C@@H](C(=O)N[C@@H]2C(=O)N3[C@@H]2SC(C)(C)[C@@H]3C(=O)O)c2ccccc2)C(=O)C1=O [PIPERACILLIN] | Not Active | Not Active | Not Active | Not Active | Not Active | Not Active | Not Active | Not Active | Not Active | Not Active | – | – | –
c1ccc2c(c1)Nc1ccccc1S2 [PHENOTHIAZINE] | – | Not Active | Not Active | Not Active | Not Active | – | Not Active | Not Active | Not Active | Not Active | 4.64 µM | 24.9 µM | 19.6 µM
Cl.NC[C@H]1CC[C@H](C(=O)Oc2ccc(CCC(=O)O)cc2)CC1 [CETRAXATE HYDROCHLORIDE] | Not Active | Not Active | Not Active | Not Active | Not Active | Not Active | Not Active | Not Active | Not Active | Not Active | – | – | –
CN(CCOc1ccc(C[C@H](Nc2ccccc2C(=O)c2ccccc2)C(=O)O)cc1)c1ccccn1 | Not Active | Not Active | Not Active | Not Active | Not Active | Not Active | Not Active | Not Active | Not Active | Not Active | – | – | –
Nc1nc(F)nc2c1ncn2[C@@H]1O[C@H](CO)[C@@H](O)[C@@H]1O [FLUDARABINE] | Not Active | Not Active | Not Active | Not Active | Not Active | Not Active | Not Active | Not Active | Not Active | Not Active | – | – | –
OC[C@H]1OC2C3[C@@H](CO)OC(O[C@H]4[C@H](O)[C@@H](O)[C@@H](O[C@H]5[C@H](O)[C@@H](O)[C@@H](O[C@H]6[C@H](O)[C@@H](O)[C@@H](O[C@H]7[C@H](O)[C@@H](O)[C@@H](O[C@H]8[C@H](O)[C@@H](O)[C@@H](O[C@H]9[C@H](O)[C@@H](O)C(OC1[C@H](O)[C@H]2O)O[C@@H]9CO)O[C@@H]8CO)O[C@@H]7CO)O[C@@H]6CO)O[C@@H]5CO)O[C@@H]4CO)[C@H](O)[C@H]3O | Not Active | Not Active | Not Active | Not Active | Not Active | Not Active | Not Active | Not Active | Not Active | Not Active | – | – | –
C[C@]12CC[C@@H](O)C[C@@H]1CC[C@@H]1[C@@H]2CC[C@]2(C)C(=O)CC[C@@H]12 [ANDROSTERONE] | Not Active | Not Active | Not Active | Not Active | Not Active | Not Active | Not Active | Not Active | Not Active | Not Active | – | – | –
COC(=O)Nc1nc2ccc(Sc3ccccc3)cc2[nH]1 [FENBENDAZOLE] | Not Active | Not Active | Not Active | Not Active | Not Active | Not Active | Not Active | Not Active | Not Active | Not Active | – | – | –
C#C[C@]1(O)CC[C@H]2[C@@H]3CCC4=CC(=O)CC[C@@H]4[C@H]3CC[C@@]21C [NORETHINDRONE] | Not Active | Not Active | Not Active | Not Active | Not Active | Not Active | Not Active | Not Active | Not Active | Not Active | – | – | –
O=C(Nc1ccc(Cl)c(Cl)c1)c1cc(Cl)cc(Cl)c1O [3,3',4',5-TETRACHLOROSALICYLANILIDE] | Not Active | Not Active | Not Active | Not Active | Not Active | Not Active | Not Active | Not Active | Not Active | Not Active | – | – | –
CCN(CCO)CCCC(C)Nc1ccnc2cc(Cl)ccc12 (stereo unspecified) [HYDROXYCHLOROQUINE] | Not Active | Not Active | Not Active | Not Active | Not Active | Not Active | Not Active | Not Active | Not Active | Not Active | – | – | –
CC1(COc2ccc(CC3SC(=O)NC3=O)cc2)CCCCC1 (stereo unspecified) [CIGLITAZONE] | Not Active | Not Active | Not Active | Not Active | Not Active | Not Active | Not Active | Not Active | Not Active | Not Active | – | – | –
COC(=O)C[C@](O)(CCC(C)(C)O)C(=O)O[C@@H]1C(OC)=C[C@]23CCCN2CCc2cc4c(cc2[C@H]13)OCO4 [HARRINGTONINE] | Not Active | Not Active | Not Active | Not Active | Not Active | Not Active | Not Active | Not Active | Not Active | Not Active | – | – | –
CCCCCCNC(=O)n1cc(F)c(=O)[nH]c1=O [CARMOFUR] | Not Active | Not Active | Not Active | Not Active | Not Active | Not Active | Not Active | Not Active | Not Active | Not Active | – | – | –
O=c1[nH]cnc2c1ncn2[C@H]1CC[C@@H](CO)O1 [DIDANOSINE] | Not Active | Not Active | Not Active | Not Active | Not Active | Not Active | Not Active | Not Active | Not Active | Not Active | – | – | –
O=C(O)CO [GLYCOLIC ACID] | Not Active | Not Active | Not Active | Not Active | Not Active | Not Active | Not Active | Not Active | Not Active | Not Active | – | – | –
CC(C)Cc1ccc([C@H](C)C(=O)O)cc1 [DEXIBUPROFEN] | Not Active | Not Active | Not Active | Not Active | Not Active | Not Active | Not Active | Not Active | Not Active | Not Active | – | – | –
CC(C)(C#N)c1cc(Cn2cncn2)cc(C(C)(C)C#N)c1 [ANASTROZOLE] | Not Active | Not Active | Not Active | Not Active | Not Active | Not Active | Not Active | Not Active | Not Active | Not Active | – | – | –
